In ChEMBL document CHEMBL1201862, “PubChem BioAssay data set” (2004):
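Method: 48-hour compound exposure of cells in 96-well plates, five concentrations, linear interpolation of endpoints. The concentration for 50% growth inhibition is given as GI50.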 Calls of active or inactive are those of the source. Cut-off read from the data, not from the text of the source: active = GI50 up to about 1.1 µM and inactive = higher. Residues, ends and D or L forms follow the SMILES beside them. *: point of attachment. Cbz = O=C(OCc1ccccc1)*; Boc = CC(C)(C)OC(=O)*; OSu = O=C1CCC(=O)N1O*; Bn = c1ccc(C*)cc1

Tests used:
Test in all cases: NCI-60 cell line screen, 48 h
SK-MEL-5 = system: SK-MEL-5
LOX IMVI = system: LOX IMVI
ACHN = system: ACHN
NCI-H226 = system: NCI-H226
HOP-62 = system: HOP-62
SW-620 = system: SW-620
786-0 = system: 786-0
HL-60 = system: HL-60
COLO 205 = system: COLO 205
RPMI-8226 = system: RPMI-8226
KM12 = system: KM12
NCI-H460 = system: NCI-H460
HOP-92 = system: HOP-92
Malme-3M = system: Malme-3M
CAKI-1 = system: CAKI-1
UO-31 = system: UO-31
OVCAR-3 = system: OVCAR-3
HCC 2998 = system: HCC 2998
TK-10 = system: TK-10

| Structure (SMILES) | GI50 (SK-MEL-5) | GI50 (LOX IMVI) | GI50 (ACHN) | GI50 (NCI-H226) | GI50 (HOP-62) | GI50 (SW-620) | GI50 (786-0) | GI50 (HL-60) | GI50 (COLO 205) | GI50 (RPMI-8226) | GI50 (KM12) | GI50 (NCI-H460) | GI50 (HOP-92) | GI50 (Malme-3M) | GI50 (CAKI-1) | GI50 (UO-31) | GI50 (OVCAR-3) | GI50 (HCC 2998) | GI50 (TK-10) |
| --- | --- | --- | --- | --- | --- | --- | --- | --- | --- | --- | --- | --- | --- | --- | --- | --- | --- | --- | --- |
| C[n+]1cccc(NC(=O)c2ccc(NC(=O)C34CCC(C(=O)Nc5ccc(C(=O)Nc6ccc[n+](C)c6)cc5)(CC3)CC4)cc2)c1 | 33.2 µM (inactive) | 38.5 µM (inactive) | 17.9 µM (inactive) | > 100 µM (inactive) | 25.5 µM (inactive) | 70.1 µM (inactive) | 3.7 µM (inactive) | 1.87 µM (inactive) | > 10 µM (inactive) | 3.92 µM (inactive) | 1.92 µM (inactive) | 7.45 µM (inactive) | > 100 µM (inactive) |  |  |  |  |  |  |
| O=c1cccccc1NCCCNc1cccccc1=O |  | > 100 µM (inactive) | > 100 µM (inactive) | > 100 µM (inactive) | > 100 µM (inactive) | > 100 µM (inactive) | > 100 µM (inactive) | 43.2 µM (inactive) | > 100 µM (inactive) | > 100 µM (inactive) | > 100 µM (inactive) | 41.6 µM (inactive) | > 100 µM (inactive) | 11.9 µM (inactive) | > 100 µM (inactive) | > 100 µM (inactive) | > 100 µM (inactive) |  |  |
| COCC(O)CN1C(N)=NC(O)C1O (stereo not drawn) | > 100 µM (inactive) | > 100 µM (inactive) | > 100 µM (inactive) | > 100 µM (inactive) | > 100 µM (inactive) | > 100 µM (inactive) | > 100 µM (inactive) | > 100 µM (inactive) | > 100 µM (inactive) |  | > 100 µM (inactive) | > 100 µM (inactive) | > 100 µM (inactive) | > 100 µM (inactive) | > 100 µM (inactive) | > 100 µM (inactive) |  | > 100 µM (inactive) | > 100 µM (inactive) |
| CC1=CC(=O)/C(=C/NC(=S)Nc2ccc(S(N)(=O)=O)cc2)C(=O)O1 | > 100 µM (inactive) | > 100 µM (inactive) | > 100 µM (inactive) | > 100 µM (inactive) | > 100 µM (inactive) | > 100 µM (inactive) | > 100 µM (inactive) | > 100 µM (inactive) | > 100 µM (inactive) |  | > 100 µM (inactive) | > 100 µM (inactive) | > 100 µM (inactive) |  | > 100 µM (inactive) | > 100 µM (inactive) | > 100 µM (inactive) | > 100 µM (inactive) | > 100 µM (inactive) |
| COc1cc2c[n+]3ccc4cc(OC)c(OC)cc4c3cc2cc1O | > 100 µM (inactive) | > 100 µM (inactive) | > 100 µM (inactive) |  |  | > 100 µM (inactive) | > 100 µM (inactive) | > 100 µM (inactive) |  | > 100 µM (inactive) | > 100 µM (inactive) | > 100 µM (inactive) | > 100 µM (inactive) | > 100 µM (inactive) |  | > 100 µM (inactive) |  | > 100 µM (inactive) | > 100 µM (inactive) |
| COc1ccc(/C=[N+](\[O-])[C@H](COCc2ccccc2)c2ccccc2)cc1 |  | 89.9 µM (inactive) | 51.8 µM (inactive) |  | > 100 µM (inactive) | 92 µM (inactive) | > 100 µM (inactive) | 25 µM (inactive) | 84.3 µM (inactive) | 15.7 µM (inactive) | 89.1 µM (inactive) | 63.7 µM (inactive) | 23.9 µM (inactive) | 42.1 µM (inactive) |  | 17.3 µM (inactive) | 44.4 µM (inactive) | > 100 µM (inactive) | > 100 µM (inactive) |
| c1cc(-c2ccc(-c3ccsc3)s2)cs1 | > 100 µM (inactive) | 66.7 µM (inactive) | 35.9 µM (inactive) | 47.5 µM (inactive) | 39.6 µM (inactive) | 44.3 µM (inactive) | 36.1 µM (inactive) | 19.2 µM (inactive) | > 100 µM (inactive) | > 100 µM (inactive) | > 10 µM (inactive) | > 100 µM (inactive) | > 100 µM (inactive) |  | 45.4 µM (inactive) | 28.1 µM (inactive) | > 100 µM (inactive) | > 100 µM (inactive) | 76.4 µM (inactive) |
| COc1ccc2oc(-c3cc4cc(OC)ccc4o3)cc2c1 | > 100 µM (inactive) | > 100 µM (inactive) | > 100 µM (inactive) |  | > 100 µM (inactive) | > 100 µM (inactive) | > 100 µM (inactive) | > 100 µM (inactive) | > 100 µM (inactive) | > 100 µM (inactive) | > 100 µM (inactive) | > 100 µM (inactive) | > 100 µM (inactive) | > 100 µM (inactive) | > 100 µM (inactive) | > 100 µM (inactive) | > 100 µM (inactive) | > 100 µM (inactive) | > 100 µM (inactive) |
| CN(CC(=O)O)S(=O)(=O)c1ccc(F)cc1 | > 100 µM (inactive) | > 100 µM (inactive) | > 100 µM (inactive) |  |  | > 100 µM (inactive) | > 100 µM (inactive) | > 100 µM (inactive) | > 100 µM (inactive) | > 100 µM (inactive) | > 100 µM (inactive) | > 100 µM (inactive) | > 100 µM (inactive) | > 100 µM (inactive) | > 100 µM (inactive) | > 100 µM (inactive) | > 100 µM (inactive) | > 100 µM (inactive) | > 100 µM (inactive) |
| CC(C)(C)C1CCP(=O)(c2ccccc2)CC1 (stereo not drawn) | > 100 µM (inactive) | > 100 µM (inactive) | > 100 µM (inactive) | > 100 µM (inactive) | > 100 µM (inactive) | > 100 µM (inactive) | > 100 µM (inactive) | > 100 µM (inactive) | > 100 µM (inactive) | > 100 µM (inactive) | > 100 µM (inactive) | > 100 µM (inactive) |  | > 100 µM (inactive) |  | > 100 µM (inactive) | > 100 µM (inactive) | > 100 µM (inactive) | > 100 µM (inactive) |
| CCN(CC)c1ccc(/N=N/c2ccc([N+](=O)[O-])cc2OC(=O)/C=C/c2ccccc2)c(OC(=O)/C=C/c2ccccc2)c1 | 12.2 µM (inactive) | 4.74 µM (inactive) | 2.1 µM (inactive) | 1.44 µM (inactive) | 2.12 µM (inactive) | 7.57 µM (inactive) | 7.43 µM (inactive) | 2.11 µM (inactive) | > 100 µM (inactive) |  | 3.83 µM (inactive) | 0.7 µM (active) | > 100 µM (inactive) | 6.44 µM (inactive) | 84.1 µM (inactive) | 4.45 µM (inactive) | 3.18 µM (inactive) | 12.7 µM (inactive) | 27.3 µM (inactive) |
| CCCCN1C(=O)C2c3[nH]c4ccccc4c3C3CCCCC3C2C1=O.CCCCN1C(=O)C2c3[nH]c4ccccc4c3[C@@H]3CCCCC3C2C1=O (stereo not drawn) | 23.6 µM (inactive) | 10.9 µM (inactive) | 7.36 µM (inactive) |  | 6.4 µM (inactive) | 37.8 µM (inactive) | 4.41 µM (inactive) | 13.6 µM (inactive) | 26.7 µM (inactive) |  |  | 10.5 µM (inactive) |  |  | 6.18 µM (inactive) | 14.8 µM (inactive) | 12.4 µM (inactive) | 8.85 µM (inactive) | 13.7 µM (inactive) |
| Cc1ccc(NC(=O)CCc2nnc3s/c(=C\c4cccc([N+](=O)[O-])c4)c(=O)n23)cc1 | > 100 µM (inactive) | 48.8 µM (inactive) | 84.7 µM (inactive) | > 100 µM (inactive) | 16.7 µM (inactive) | 19.3 µM (inactive) | 40.4 µM (inactive) |  | > 100 µM (inactive) | > 100 µM (inactive) | > 100 µM (inactive) | > 100 µM (inactive) | 85.3 µM (inactive) | > 100 µM (inactive) | > 100 µM (inactive) | > 100 µM (inactive) | > 100 µM (inactive) | > 100 µM (inactive) | > 100 µM (inactive) |
| CC(=O)OC(=O)O/C=C\CCl | > 100 µM (inactive) |  | > 100 µM (inactive) | > 100 µM (inactive) | > 100 µM (inactive) | > 100 µM (inactive) | > 100 µM (inactive) | 29.4 µM (inactive) | > 100 µM (inactive) | > 100 µM (inactive) | > 100 µM (inactive) | > 100 µM (inactive) |  | > 100 µM (inactive) | > 100 µM (inactive) | > 100 µM (inactive) | > 100 µM (inactive) | > 100 µM (inactive) | > 100 µM (inactive) |
| CCc1ccccc1NC(=O)/C(CC(=O)c1c(C)[n+]([O-])c2ccccc2[n+]1[O-])=N\NS(=O)(=O)c1ccc(C)cc1 |  |  | 57 µM (inactive) | > 100 µM (inactive) | > 100 µM (inactive) | 25.9 µM (inactive) | 87.5 µM (inactive) | 15.8 µM (inactive) | 36.8 µM (inactive) | 12.2 µM (inactive) | 36.9 µM (inactive) | 25.6 µM (inactive) |  | 57.4 µM (inactive) |  | > 100 µM (inactive) | 12.1 µM (inactive) | 47.1 µM (inactive) | > 100 µM (inactive) |
| CC(C)(C)OC(=O)NC(Cc1ccc(OCc2ccccc2)cc1)C(=O)NC(CCCCNC(=O)OCc1ccccc1)C(=O)NC(CCCCNC(=O)OCc1ccccc1)C(=O)ON1C(=O)CCC1=O (stereo not drawn) (Boc-Tyr(Bn)-Lys(Cbz)-Lys(Cbz)-OSu; configuration not given here) | 26 µM (inactive) |  | 38.5 µM (inactive) |  | > 100 µM (inactive) |  | 20.8 µM (inactive) |  | 31.1 µM (inactive) | > 100 µM (inactive) | 46.1 µM (inactive) | 71.1 µM (inactive) | 51.2 µM (inactive) | 54.3 µM (inactive) | 64.4 µM (inactive) | > 100 µM (inactive) |  |  | > 100 µM (inactive) |
